Laboratory results taken from patent US12551474B2, “Use of pridopidine for the treatment of fragile X syndrome” (PRILENIA NEUROTHERAPEUTICS LTD., priority 2017, dated 2026).
Read-outs that look alike come from different tables or passages of the source.

What was measured:
[1] = test system: human FXS neurons; settings: 8-day period, vs DMSO
Description: Control cells used were a human Embryonic Stem (ES) cell line.
FIG. 2A upper panels show MAP2/Tuj-1/DNA immunostaining; lower panels show GABA/NeuN/DNA immunostaining.
Neurite growth is a surrogate of neuronal development and maturation.
Open squares show data from DMSO treated FXS neurons.

[2] = test system: FXS neurons; test: neurite outgrowth in FXS neurons with genetic or pharmacological inactivation of S1R; type: cell-based, human
Description: To investigate whether the rescue of neurite outgrowth deficits in FXS neurons following pridopidine treatment is mediated via sigma-1 receptor (S1R), virally-delivered Cas9 was used to target and inactivate S1R in FXS NPC prior to neuronal differentiation. Effective inactivation of S1R gene and loss of its protein product was confirmed by western blot (FIG. 6A).
The effect of a pharmacological inhibitor of S1R on pridopidine-mediated neurite outgrowth improvements in FXS neurons was further tested.

[3] = test system: human patients afflicted with a FXS related disorder; settings: periodic (daily or twice daily) oral administration, pediatric or adult patients
Method: The human patients are pediatric patients or adult patients.
A pridopidine composition as described herein is administered orally to a subject suffering from a FXS related disorder.

[4] = test system: human patients afflicted with FXS; settings: periodic (daily or twice daily) oral administration, pediatric or adult patients
[5] = test system: rat striatum; settings: transcriptomic analysis; cited from earlier work
[6] = test system: Q175 knock-in (Q175 KI) HD mouse model; settings: cited from earlier work
[7] = test system: neuroblastoma cell line; settings: S1R-dependent; cited from earlier work

| SMILES | neurite growth in FXS neurons ([1]; 1 uM pridopidine) | neurite growth in FXS neurons ([1]; 5 uM pridopidine) | neurite outgrowth in FXS neurons ([2]; 100 nM pridopidine for 24 hrs) | improvement in neurite outgrowth in FXS neurons in which S1R was inactivated (S1RKO) ([2]; 100 nM pridopidine for 24 hrs, S1RKO (Cas9)) | treatment of a FXS related disorder [3] | treatment of FXS [4] | expression of BDNF, D1R, GR and Akt/PI3K pathways [5] | gene expression profile versus HD disease gene expression profile [6] | secretion of BDNF [7] | effect on pridopidine-mediated neurite outgrowth improvement in FXS neurons ([2]; co-administration of NE-100 (1 μM) with pridopidine) |
| --- | --- | --- | --- | --- | --- | --- | --- | --- | --- | --- |
| CCCN1CCC(c2cccc(S(C)(=O)=O)c2)CC1 [pridopidine, 4-[3-(methylsulfonyl)phenyl]-1-propyl-piperidine] | significant improvement in neurite growth | significant improvement in neurite growth | improvement in neurite outgrowth | abolished | effective | effective | activates expression | reversed pattern | enhances secretion | – |
| CCCN(CCC)CCc1ccc(OC)c(OCCc2ccccc2)c1 [NE-100, reference compound] | – | – | – | – | – | – | – | – | – | blocked the effect of pridopidine |
